Reference: patent publication US10611750B2, “Tetrahydroquinoline compositions as bet bromodomain inhibitors” (FORMA Therapeutics, Inc., priority 2013, dated 2020)

Key:
[1] = target: T1, BRD4 Bromodomain 2 (BRD4 BD2) (Homo sapiens, UniProt O60885); test: AlphaScreen binding assay, BRD4 BD2; conditions: His-tagged BRD4 BD2 100 nM, biotinylated H4 (1-21) K5/8/12/16 tetra-acetylated peptide 100 nM, compounds listed under IC50 range headings
T1 construct: 333-460 were cloned, expressed, and purified to homogeneity
Outline: (§1)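 Compound dilution series were mixed with His-tagged BRD4 bromodomain and biotinylated tetra-acetylated H4 (1-21) peptide at pH 7.3 (BD1 and peptide at 50 nM, BD2 and peptide at 100 nM). Donor and acceptor beads were then added, and plates were equilibrated at least 1 h before reading. IC50 values were fitted with a four-parameter logistic model.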

[2] = tested on: acute myelocytic leukemia (AML) cell line MV4-11; test: Oncology cell growth assay (3-day proliferation, CellTiter-Glo); assay type: cell-based; conditions: Homo sapiens, MV4-11, 72 h, MV4-11 cells, 3000 cells/well, compounds listed under IC50 range headings, read-out: MV411 IC50 (gIC50, inhibition of proliferation)
Outline: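 Compounds were serially diluted 3-fold in DMSO, giving final well concentrations from 10 down to 0.0045 μM. MV4-11 cells were then seeded at 3000 cells/well in RPMI 1640 with 10% FBS and incubated 72 hours. CellTiter-Glo signal was measured and gIC50 obtained by four-parameter logistic regression.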

[3] = target: T2, BRD4 Bromodomain 1 (BRD4 BD1) (Homo sapiens, UniProt O60885); test: AlphaScreen binding assay, BRD4 BD1; conditions: His-tagged BRD4 BD1 50 nM, biotinylated H4 (1-21) K5/8/12/16 tetra-acetylated peptide 50 nM, compounds listed under IC50 range headings
T2 construct: 44-168 and BRD4 BD2
Outline: as §1

| Structure (SMILES) | IC50 [1] | IC50 [2] | IC50 [3] |
| --- | --- | --- | --- |
| CC(=O)N1c2ccc(-c3cnn(CC(C)(C)O)c3)c(Oc3ncc(F)cn3)c2CC[C@@H]1C [I-551] | < 50 nM | < 500 nM | 100 to 1000 nM |
| CC(=O)N1c2ccc(-c3cnn(C(C)(C)CO)c3)c(Oc3ncc(F)cn3)c2CC[C@@H]1C [I-552] | < 50 nM | < 500 nM | 100 to 1000 nM |
| CC(=O)N1c2ccc(-c3ccc(N4CCCS4(=O)=O)cc3)c(Oc3ncc(F)cn3)c2CC[C@@H]1C [I-553] | < 50 nM | < 500 nM | 100 to 1000 nM |
| COC(=O)N1c2ccc(-c3cnn(CCS(C)(=O)=O)c3)c(Oc3ccc(C(F)(F)F)cn3)c2CC[C@@H]1C [I-554] | 50 to 500 nM | > 1000 nM | 1000 to 10000 nM |
| COC(=O)N1c2ccc(-c3cnn(CC(C)(C)O)c3)c(Oc3ccc(C(F)(F)F)cn3)c2CC[C@@H]1C [I-555] | 50 to 500 nM | > 1000 nM | 1000 to 10000 nM |
| COC(=O)N1c2ccc(-c3cnn(CCO)c3)c(Oc3ccc(C(F)(F)F)cn3)c2CC[C@@H]1C [I-556] | 50 to 500 nM | 500 to 1000 nM | 1000 to 10000 nM |
| COC(=O)N1c2ccc(-c3cnn(C4CC4)c3)c(Oc3ccc(C(F)(F)F)cn3)c2CC[C@@H]1C [I-557] | 50 to 500 nM | > 1000 nM | 1000 to 10000 nM |
| COC(=O)N1c2ccc(-c3cnn(CCS(C)(=O)=O)c3)c(Oc3cnccn3)c2CC[C@@H]1C [I-558] | 50 to 500 nM | > 1000 nM | 1000 to 10000 nM |
| COC(=O)N1c2ccc(-c3cnn(CC(C)(C)O)c3)c(Oc3cnccn3)c2CC[C@@H]1C [I-559] | 50 to 500 nM | 500 to 1000 nM | 1000 to 10000 nM |
| COC(=O)N1c2ccc(-c3cnn(CCO)c3)c(Oc3cnccn3)c2CC[C@@H]1C [I-560] | 50 to 500 nM | 500 to 1000 nM | 1000 to 10000 nM |
| COC(=O)N1c2ccc(-c3cnn(C4CC4)c3)c(Oc3cnccn3)c2CC[C@@H]1C [I-561] | 50 to 500 nM | 500 to 1000 nM | 1000 to 10000 nM |
| COC(=O)N1c2ccc(-c3cnn(CCS(C)(=O)=O)c3)c(Oc3ncccc3C(F)(F)F)c2CC[C@@H]1C [I-562] | 50 to 500 nM | 500 to 1000 nM | 1000 to 10000 nM |
| COC(=O)N1c2ccc(-c3cnn(CC(C)(C)O)c3)c(Oc3ncccc3C(F)(F)F)c2CC[C@@H]1C [I-563] | < 50 nM | > 1000 nM | 1000 to 10000 nM |
| COC(=O)N1c2ccc(-c3cnn(CCO)c3)c(Oc3ncccc3C(F)(F)F)c2CC[C@@H]1C [I-564] | 50 to 500 nM | 500 to 1000 nM | 1000 to 10000 nM |
| COC(=O)N1c2ccc(-c3cnn(C4CC4)c3)c(Oc3ncccc3C(F)(F)F)c2CC[C@@H]1C [I-565] | 50 to 500 nM | 500 to 1000 nM | 1000 to 10000 nM |
| COC(=O)N1c2ccc(-c3cnn(CCS(C)(=O)=O)c3)c(Oc3ncccc3C#N)c2CC[C@@H]1C [I-566] | 50 to 500 nM | > 1000 nM | 1000 to 10000 nM |
| COC(=O)N1c2ccc(-c3cnn(CC(C)(C)O)c3)c(Oc3ncccc3C#N)c2CC[C@@H]1C [I-567] | 50 to 500 nM | 500 to 1000 nM | 1000 to 10000 nM |
| COC(=O)N1c2ccc(-c3cnn(CCO)c3)c(Oc3ncccc3C#N)c2CC[C@@H]1C [I-568] | 50 to 500 nM | < 500 nM | 1000 to 10000 nM |
| COC(=O)N1c2ccc(-c3cnn(C4CC4)c3)c(Oc3ncccc3C#N)c2CC[C@@H]1C [I-569] | 50 to 500 nM | < 500 nM | 1000 to 10000 nM |
| COC(=O)N1c2ccc(-c3cnn(CCS(C)(=O)=O)c3)c(Oc3ncc(C4CC4)cn3)c2CC[C@@H]1C [I-570] | 50 to 500 nM | > 1000 nM | 1000 to 10000 nM |
| COC(=O)N1c2ccc(-c3cnn(CC(C)(C)O)c3)c(Oc3ncc(C4CC4)cn3)c2CC[C@@H]1C [I-571] | 50 to 500 nM | 500 to 1000 nM | 1000 to 10000 nM |
| COC(=O)N1c2ccc(-c3cnn(CCO)c3)c(Oc3ncc(C4CC4)cn3)c2CC[C@@H]1C [I-572] | 50 to 500 nM | < 500 nM | 1000 to 10000 nM |
| COC(=O)N1c2ccc(-c3cnn(C4CC4)c3)c(Oc3ncc(C4CC4)cn3)c2CC[C@@H]1C [I-573] | 50 to 500 nM | 500 to 1000 nM | 1000 to 10000 nM |
| COC(=O)N1c2ccc(-c3cnn(CCS(C)(=O)=O)c3)c(Oc3ncc(F)cn3)c2CC[C@@H]1C [I-574] | 50 to 500 nM | 500 to 1000 nM | 1000 to 10000 nM |
| COC(=O)N1c2ccc(-c3cnn(CC(C)(C)O)c3)c(Oc3ncc(F)cn3)c2CC[C@@H]1C [I-575] | 50 to 500 nM | 500 to 1000 nM | 1000 to 10000 nM |

| Structure (SMILES) | IC50 [1] | IC50 [2] | IC50 [3] |
| --- | --- | --- | --- |
| COC(=O)N1c2ccc(-c3cnn(CCO)c3)c(Oc3ncc(F)cn3)c2CC[C@@H]1C [I-576] | ≥ 500 nM | > 1000 nM | 1000 to 10000 nM |
| COC(=O)N1c2ccc(-c3cnn(C4CC4)c3)c(Oc3ncc(F)cn3)c2CC[C@@H]1C [I-577] | 50 to 500 nM | < 500 nM | 1000 to 10000 nM |
| COC(=O)N1c2ccc(-c3cnn(CCS(C)(=O)=O)c3)c(Oc3ncc(C(F)(F)F)cn3)c2CC[C@@H]1C [I-578] | 50 to 500 nM | > 1000 nM | 1000 to 10000 nM |
| COC(=O)N1c2ccc(-c3cnn(CC(C)(C)O)c3)c(Oc3ncc(C(F)(F)F)cn3)c2CC[C@@H]1C [I-579] | 50 to 500 nM | > 1000 nM | 1000 to 10000 nM |
| COC(=O)N1c2ccc(-c3cnn(CCO)c3)c(Oc3ncc(C(F)(F)F)cn3)c2CC[C@@H]1C [I-580] | 50 to 500 nM | 500 to 1000 nM | 1000 to 10000 nM |
| COC(=O)N1c2ccc(-c3cnn(C4CC4)c3)c(Oc3ncc(C(F)(F)F)cn3)c2CC[C@@H]1C [I-581] | 50 to 500 nM | > 1000 nM | 1000 to 10000 nM |
| COC(=O)N1c2ccc(-c3cnn(CCS(C)(=O)=O)c3)c(Oc3ncc(C)cn3)c2CC[C@@H]1C [I-582] | 50 to 500 nM | > 1000 nM | 1000 to 10000 nM |
| COC(=O)N1c2ccc(-c3cnn(CC(C)(C)O)c3)c(Oc3ncc(C)cn3)c2CC[C@@H]1C [I-583] | 50 to 500 nM | < 500 nM | 1000 to 10000 nM |
| COC(=O)N1c2ccc(-c3cnn(CCO)c3)c(Oc3ncc(C)cn3)c2CC[C@@H]1C [I-584] | 50 to 500 nM | 500 to 1000 nM | 1000 to 10000 nM |
| COC(=O)N1c2ccc(-c3cnn(C4CC4)c3)c(Oc3ncc(C)cn3)c2CC[C@@H]1C [I-585] | 50 to 500 nM | < 500 nM | 100 to 1000 nM |
| COC(=O)N1c2ccc(-c3cnn(CCS(C)(=O)=O)c3)c(Oc3ncccc3C(N)=O)c2CC[C@@H]1C [I-586] | 50 to 500 nM | > 1000 nM | 1000 to 10000 nM |
| COC(=O)N1c2ccc(-c3cnn(C4CC4)c3)c(Oc3ncccc3C(N)=O)c2CC[C@@H]1C [I-587] | 50 to 500 nM | 500 to 1000 nM | 1000 to 10000 nM |
| COC(=O)N1c2ccc(-c3cnn(CCS(C)(=O)=O)c3)c(Oc3ncc(C(F)(F)F)cc3F)c2CC[C@@H]1C [I-588] | 50 to 500 nM | > 1000 nM | 1000 to 10000 nM |
| COC(=O)N1c2ccc(-c3cnn(CC(C)(C)O)c3)c(Oc3ncc(C(F)(F)F)cc3F)c2CC[C@@H]1C [I-589] | 50 to 500 nM | 500 to 1000 nM | 1000 to 10000 nM |
| COC(=O)N1c2ccc(-c3cnn(CCO)c3)c(Oc3ncc(C(F)(F)F)cc3F)c2CC[C@@H]1C [I-590] | 50 to 500 nM | 500 to 1000 nM | 1000 to 10000 nM |
| COC(=O)N1c2ccc(-c3cnn(C4CC4)c3)c(Oc3ncc(C(F)(F)F)cc3F)c2CC[C@@H]1C [I-591] | 50 to 500 nM | 500 to 1000 nM | 1000 to 10000 nM |
| CC(=O)N1c2ccc(-c3cnn(C4CC4)c3)c(Oc3ccccc3)c2CC[C@@H]1C [I-594] | < 50 nM | < 500 nM | 100 to 1000 nM |
| CC(=O)N1c2ccc(-c3cnn(C4CC4)c3)c(Oc3ccc(C(=O)N(C)C)cc3)c2CC[C@@H]1C [I-595] | 50 to 500 nM | < 500 nM | 100 to 1000 nM |
| COC(=O)N1c2ccc(-c3cnn(C4CCNCC4)c3)c(Oc3cccc(C#N)c3)c2CC[C@@H]1C [I-596] | 50 to 500 nM | < 500 nM | 1000 to 10000 nM |
| CC(=O)N1c2ccc(-c3cnn(C4CC4)c3)c(Oc3ccccc3)c2CCC1C (stereo not drawn) [I-597] | 50 to 500 nM | < 500 nM | 1000 to 10000 nM |
| CC1CCc2c(ccc(-c3cnn(C4CC4)c3)c2Oc2ccccc2)N1C(=O)C1CC1 (stereo not drawn) [I-598] | 50 to 500 nM | < 500 nM | 100 to 1000 nM |
| COC(=O)N1c2ccc(-c3cnn(C4CC4)c3)c(Oc3ccccc3)c2CCC1C (stereo not drawn) [I-599] | 50 to 500 nM | < 500 nM | 1000 to 10000 nM |
| CC(=O)N1c2ccc(-c3cnn(C4COC4)c3)c(OC[C@@H]3CCNC3)c2CC[C@@H]1C [I-600] | 50 to 500 nM | > 1000 nM | 100 to 1000 nM |
| CC(=O)N1c2ccc(-c3cnn(C4CC4)c3)c(OC[C@@H]3CCNC3)c2CC[C@@H]1C [I-602] | 50 to 500 nM | 500 to 1000 nM | 100 to 1000 nM |
| CC(=O)N1c2ccc(-c3cnn(C4CC4)c3)c(OC[C@H]3CCNC3)c2CC[C@@H]1C [I-603] | 50 to 500 nM | > 1000 nM | 100 to 1000 nM |
